Measured values published in patent publication US20230203098A1, “HUMAN TRANSFERRIN RECEPTOR BINDING PEPTIDE” (priority 2020, published 2023).
Read-outs that look alike come from different tables or passages of the source. Each block holds one compound with its values, some of them ahead of it. Where a SMILES comes first, the peptide text is derived from it. Bridges are numbered along the chain shown (N, C = ends). [ ]: non-standard residue; d: D form. The star is where a group is joined. PEG12 = NCCOCCOCCOCCOCCOCCOCCOCCOCCOCCOCCOCCOCCC(=O)O; NMePhe(3-Cl) = CN[C@@H](Cc1cccc(Cl)c1)C(=O)O; NMeW = CN[C@@H](Cc1c[nH]c2ccccc12)C(=O)O; Lys(N3) = [N-]=[N+]=NCCCC[C@H](N)C(=O)O; X4 = O=C1C=CC(=O)N1CC1CCC(C(=O)*)CC1; NMeY = CN[C@@H](Cc1ccc(O)cc1)C(=O)O; NMeF = CN[C@@H](Cc1ccccc1)C(=O)O; Ahp(2) = CCCCC[C@H](N)C(=O)O

Biological target: transferrin receptor (hTfR) (Homo sapiens, UniProt P02786)
Sequence (P02786 whole entry): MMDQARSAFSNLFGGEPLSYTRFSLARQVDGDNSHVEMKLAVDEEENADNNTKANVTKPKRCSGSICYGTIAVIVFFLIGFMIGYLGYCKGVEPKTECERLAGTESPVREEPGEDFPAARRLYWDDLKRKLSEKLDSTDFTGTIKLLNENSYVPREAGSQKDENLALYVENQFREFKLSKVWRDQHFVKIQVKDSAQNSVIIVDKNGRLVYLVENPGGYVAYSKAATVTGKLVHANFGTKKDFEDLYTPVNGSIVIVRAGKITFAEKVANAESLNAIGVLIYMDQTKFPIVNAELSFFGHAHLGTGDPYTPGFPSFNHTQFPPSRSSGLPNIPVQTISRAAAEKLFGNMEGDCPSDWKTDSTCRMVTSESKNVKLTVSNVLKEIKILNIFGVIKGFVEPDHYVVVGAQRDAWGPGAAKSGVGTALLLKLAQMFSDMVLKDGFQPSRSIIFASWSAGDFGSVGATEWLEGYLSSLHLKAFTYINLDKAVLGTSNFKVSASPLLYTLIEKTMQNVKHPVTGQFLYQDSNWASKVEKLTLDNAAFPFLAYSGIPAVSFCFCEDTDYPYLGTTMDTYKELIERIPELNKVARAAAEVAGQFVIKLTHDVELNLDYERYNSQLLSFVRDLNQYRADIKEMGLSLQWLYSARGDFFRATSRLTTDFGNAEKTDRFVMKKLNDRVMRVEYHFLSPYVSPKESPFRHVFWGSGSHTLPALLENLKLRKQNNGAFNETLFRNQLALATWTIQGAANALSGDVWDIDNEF
Experiment: Intermolecular interaction evaluation test between transferrin receptor (hTfR) and peptide by surface plasmon resonance (SPR)
Assay type: binding
Summary of the method: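 hTfR captured on Ni-NTA chip then amine-coupled; peptides run single-cycle kinetics at 5–100 nM in 10 mM HEPES pH 8.0, 150 mM NaCl, 0.05% Tween 20, 0.1% BSA, 1.0% DMSO. KD from least-squares curve fitting of sensorgrams.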

[1] = surface plasmon resonance, hTfR, read-out: KD value for hTfR by SPR (class symbol)
[2] = SPR, peptides, linker-added peptides and FITC conjugates, Patent ID 203-230, read-out: KD
[3] = hTfR binding by SPR, hTfR No. 894 variant peptides, linker-added peptides and payload conjugates (Table 2), read-out: KD value obtained from the SPR measurement
[4] = binding to hTfR by SPR, Table 2 peptides, read-out: KD value (SPR) class

Kd [1]: 1 to 100 nM
Compound: CC[C@H](C)[C@@H]1NC(=O)[C@H](Cc2ccc(OC)cc2)NC(=O)[C@H](Cc2ccc(O)cc2)NC(=O)[C@H](CC(N)=O)NC(=O)[C@H](Cc2c[nH]c3ccccc23)N(C)C(=O)[C@H](C(C)C)NC(=O)[C@H](Cc2cccc(Cl)c2)N(C)C(=O)[C@H](C(C)C)NC(=O)[C@H](C)NC(=O)CSC[C@@H](C(=O)NCC(=O)NCC(=O)NCC(=O)NCC(=O)N[C@@H](CO)C(=O)N[C@@H](CO)C(=O)N[C@@H](CS)C(N)=O)NC(=O)[C@H](Cc2ccc(O)cc2)N(C)C(=O)[C@H](Cc2ccccc2)NC(=O)[C@@H](CCCNC(=N)N)NC(=O)[C@H](CCCCN)NC(=O)[C@H]([C@@H](C)CC)NC1=O [compound 376]

Kd (SPR, hTfR, class symbols A-D, read-out: KD): 100 to 1000 nM
Compound: CC[C@H](C)[C@@H]1NC(=O)[C@H](Cc2ccc(OC)cc2)NC(=O)[C@H](Cc2ccc(O)cc2)NC(=O)[C@H](CC(N)=O)NC(=O)[C@H](Cc2c[nH]c3ccccc23)N(C)C(=O)[C@H](C(C)C)NC(=O)[C@H](Cc2cccc(C(=O)O)c2)N(C)C(=O)[C@H](C(C)C)NC(=O)[C@H](C)NC(=O)CSC[C@@H](C(N)=O)NC(=O)[C@H](Cc2ccc(O)cc2)N(C)C(=O)[C@H](Cc2ccccc2)NC(=O)[C@@H](CCCNC(=N)N)NC(=O)[C@H](CCCNC(=N)N)NC(=O)[C@H]([C@@H](C)CC)NC1=O [compound 452]

Kd (SPR, linker and payload (FITC, VivoTag) conjugates, read-out: KD): 1 to 100 nM
Compound: CC[C@H](C)[C@@H]1NC(=O)[C@H](Cc2ccc(O)cc2)NC(=O)[C@H](Cc2ccc(O)cc2)NC(=O)[C@H](CC(N)=O)NC(=O)[C@H](Cc2c[nH]c3ccccc23)NC(=O)[C@H](C(C)C)NC(=O)[C@H](Cc2ccccc2)NC(=O)[C@H](C(C)C)NC(=O)[C@H](C)NC(=O)CSC[C@@H](C(=O)NCCOCCOCCOCCOCCC(=O)N[C@@H](CNC(=O)c2ccc(-c3c4ccc(=O)cc-4oc4cc(O)ccc34)c(C(=O)O)c2)C(N)=O)NC(=O)[C@H](Cc2ccc(O)cc2)N(C)C(=O)[C@H](Cc2ccc(O)cc2)NC(=O)[C@H](CCCNC(=N)N)NC(=O)[C@H](CCCNC(=N)N)N(C)C(=O)[C@H]([C@@H](C)CC)NC1=O [compound 164]

Kd [1]: 100 to 1000 nM
Compound: CC[C@H](C)[C@@H]1NC(=O)[C@H](Cc2ccc(OC)cc2)NC(=O)[C@H](Cc2ccc(O)cc2)NC(=O)[C@H](CC(N)=O)NC(=O)[C@H](Cc2c[nH]c3ccccc23)N(C)C(=O)[C@H](C(C)C)NC(=O)[C@H](Cc2cccc(Cl)c2)N(C)C(=O)[C@H](C(C)C)NC(=O)[C@H](C)NC(=O)CSC[C@@H](C(N)=O)NC(=O)[C@H](Cc2ccc(O)cc2)N(C)C(=O)[C@H](Cc2ccccc2)NC(=O)[C@@H](C)NC(=O)[C@H](CCCCN)N(C)C(=O)[C@H]([C@@H](C)CC)NC1=O [compound 378]

Kd [2]: 1 to 100 nM
Compound: CC[C@H](C)[C@@H]1NC(=O)[C@H](Cc2ccc(OC)cc2)NC(=O)[C@H](Cc2ccc(O)cc2)NC(=O)[C@H](CC(N)=O)NC(=O)[C@H](Cc2c[nH]c3ccccc23)N(C)C(=O)[C@H](C(C)C)NC(=O)[C@H](Cc2cccc(Cl)c2)N(C)C(=O)[C@H](CCC(=O)O)NC(=O)[C@H](C)NC(=O)CSC[C@@H](C(N)=O)NC(=O)[C@H](CC(N)=O)NC(=O)[C@H](CCCNC(=N)N)NC(=O)[C@@H]2CCCN2C(=O)[C@H](C(C)C)NC1=O [compound 207] ({CH2CO}-AE[NMePhe(3-Cl)]V[NMeW]NYY(Me)IVPRNC-NH2; thioether N-14)

Kd (SPR, hTfR No. 894 variants with PEG12c linker (Table 2), read-out: KD): 1 to 100 nM
Compound: CC[C@H](C)[C@@H]1NC(=O)[C@H](Cc2ccc(O)cc2)NC(=O)[C@H](Cc2ccc(O)cc2)NC(=O)[C@H](CC(N)=O)NC(=O)[C@H](Cc2c[nH]c3ccccc23)NC(=O)[C@H](C(C)C)NC(=O)[C@H](Cc2ccccc2)N(C)C(=O)[C@H](C(C)C)NC(=O)[C@H](C)NC(=O)CSC[C@@H](C(=O)NCCOCCOCCOCCOCCOCCOCCOCCOCCOCCOCCOCCOCCC(N)=O)NC(=O)[C@H](C)NC(=O)[C@H](Cc2ccc(O)cc2)NC(=O)[C@H](CCCNC(=N)N)NC(=O)[C@H](CCCNC(=N)N)NC(=O)[C@H]([C@@H](C)CC)NC1=O [compound 117] ({CH2CO}-AV[NMeF]VWNYYIIRRYAC[PEG12]-NH2; thioether N-15)

Kd [2]: 1 to 100 nM
Compound: CC[C@H](C)[C@@H]1NC(=O)[C@H](Cc2ccc(OC)cc2)NC(=O)[C@H](Cc2ccc(O)cc2)NC(=O)[C@H](CC(N)=O)NC(=O)[C@H](Cc2c[nH]c3ccccc23)NC(=O)[C@H](C(C)C)NC(=O)[C@H](Cc2cccc(Cl)c2)N(C)C(=O)[C@H](CCC(=O)O)NC(=O)[C@H](C)NC(=O)CSC[C@@H](C(=O)NCC(=O)NCC(=O)N[C@@H](CO)C(=O)NCC(=O)N[C@@H](CO)C(=O)NCC(=O)N[C@@H](CCCCNC(=O)C2CCC(CN3C(=O)C=CC3=O)CC2)C(N)=O)NC(=O)[C@H](Cc2ccc(O)cc2)N(C)C(=O)[C@H](Cc2ccccc2)NC(=O)[C@@H](CCCNC(=N)N)NC(=O)[C@H](CCCNC(=N)N)NC(=O)[C@H]([C@@H](C)CC)NC1=O (some centres unmarked) [compound 222] ({CH2CO}-AE[NMePhe(3-Cl)]VWNYY(Me)IIR[dR]F[NMeY]CGGSGSGK(X4)-NH2; thioether N-15)

Kd [1]: < 1 nM
Compound: CC[C@H](C)[C@@H]1NC(=O)[C@H](Cc2ccc(OC)cc2)NC(=O)[C@H](Cc2ccc(O)cc2)NC(=O)[C@H](CC(N)=O)NC(=O)[C@H](Cc2c[nH]c3ccccc23)N(C)C(=O)[C@H](C(C)C)NC(=O)[C@H](Cc2cccc(Cl)c2)N(C)C(=O)[C@H](C(C)C)NC(=O)[C@H](C)NC(=O)CSC[C@@H](C(N)=O)NC(=O)[C@H](Cc2ccc(O)cc2)N(C)C(=O)[C@H](Cc2ccccc2)NC(=O)[C@H](CCCNC(=N)N)NC(=O)[C@H](CCCCN)NC(=O)[C@H]([C@@H](C)CC)NC1=O [compound 371]

Kd [3]: 1 to 100 nM
Compound: CC[C@H](C)[C@@H]1NC(=O)[C@H](Cc2ccc(O)cc2)NC(=O)[C@H](Cc2ccc(O)cc2)NC(=O)[C@H](CC(N)=O)NC(=O)[C@H](Cc2c[nH]c3ccccc23)NC(=O)[C@H](C(C)C)NC(=O)[C@H](Cc2ccccc2)N(C)C(=O)[C@H](C(C)C)NC(=O)[C@H](C)NC(=O)CSC[C@@H](C(=O)N[C@@H](CCCCNC(=O)C2CCC(CN3C(=O)C=CC3=O)CC2)C(N)=O)NC(=O)[C@H](Cc2ccc(O)cc2)N(C)C(=O)[C@H](Cc2ccc(O)cc2)NC(=O)[C@H](CCCNC(=N)N)NC(=O)[C@H](CCCNC(=N)N)NC(=O)[C@H]([C@@H](C)CC)NC1=O (some centres unmarked) [compound 186]

Kd [3]: 1 to 100 nM
Compound: CC[C@H](C)[C@@H]1NC(=O)[C@H](Cc2ccc(O)cc2)NC(=O)[C@H](Cc2ccc(O)cc2)NC(=O)[C@H](CC(N)=O)NC(=O)[C@H](Cc2c[nH]c3ccccc23)NC(=O)[C@H](C(C)C)NC(=O)[C@H](Cc2ccccc2)N(C)C(=O)[C@H](C(C)C)NC(=O)[C@H](C)NC(=O)CSC[C@@H](C(=O)NCC(=O)NCC(=O)N[C@@H](CO)C(=O)NCC(=O)N[C@@H](CO)C(=O)N[C@@H](CO)C(=O)NCC(=O)NCC(=O)N[C@@H](CO)C(=O)NCC(=O)N[C@@H](CO)C(=O)N[C@@H](CO)C(=O)N[C@@H](CCCCNC(=O)C2CCC(CN3C(=O)C=CC3=O)CC2)C(N)=O)NC(=O)[C@H](Cc2ccc(O)cc2)N(C)C(=O)[C@H](Cc2ccc(O)cc2)NC(=O)[C@H](CCCNC(=N)N)NC(=O)[C@H](CCCNC(=N)N)NC(=O)[C@H]([C@@H](C)CC)NC1=O (some centres unmarked) [compound 196]

Kd [4]: 100 to 1000 nM
Compound: CCCCC[C@@H]1NC(=O)[C@H](CC(N)=O)NC(=O)[C@H](Cc2c[nH]c3ccccc23)NC(=O)[C@H](C(C)C)NC(=O)[C@H](Cc2ccccc2)N(C)C(=O)[C@H](C(C)C)NC(=O)[C@H](C)NC(=O)CSC[C@@H](C(=O)NCC(=O)N[C@@H](CCCCN=[N+]=[N-])C(N)=O)NC(=O)[C@H](Cc2ccc(O)cc2)N(C)C(=O)[C@H](Cc2ccc(O)cc2)NC(=O)[C@H](CCCNC(=N)N)NC(=O)[C@H](CCCNC(=N)N)NC(=O)[C@H]([C@@H](C)CC)NC(=O)[C@H]([C@@H](C)CC)NC(=O)[C@H](Cc2ccc(O)cc2)NC1=O [compound 276] ({CH2CO}-AV[NMeF]VWN[Ahp(2)]YIIRRY[NMeY]CG[Lys(N3)]-NH2; thioether N-15)

Kd [4]: 1 to 100 nM
Compound: CC[C@H](C)[C@@H]1NC(=O)[C@H](Cc2ccc(O)cc2)NC(=O)[C@H](Cc2ccc(O)cc2)NC(=O)[C@H](CC(N)=O)NC(=O)[C@H](Cc2c[nH]c3ccccc23)NC(=O)[C@H](C(C)C)NC(=O)[C@H](Cc2ccccc2)NC(=O)[C@H](C(C)C)NC(=O)[C@H](C)NC(=O)CSC[C@@H](C(N)=O)NC(=O)[C@H](Cc2ccc(O)cc2)N(C)C(=O)[C@H](Cc2ccc(O)cc2)NC(=O)[C@H](CCCNC(=N)N)NC(=O)[C@H](CCCNC(=N)N)NC(=O)[C@H](CCC(=O)O)NC1=O [compound 247]

Kd [1]: 1 to 100 nM
Compound: CC[C@H](C)[C@@H]1NC(=O)[C@H](Cc2ccc(OC)cc2)NC(=O)[C@H](Cc2ccc(O)cc2)NC(=O)[C@H](CC(N)=O)NC(=O)[C@H](Cc2c[nH]c3ccccc23)N(C)C(=O)[C@H](C(C)C)NC(=O)[C@H](Cc2cccc(Cl)c2)N(C)C(=O)[C@H](C(C)C)NC(=O)[C@H](C)NC(=O)CSC[C@@H](C(=O)N[C@H](CCC(=O)O)C(=O)O)NC(=O)[C@H](Cc2ccc(O)cc2)N(C)C(=O)[C@H](Cc2ccccc2)NC(=O)[C@H](CCCNC(=N)N)NC(=O)[C@H](CCCNC(=N)N)NC(=O)[C@H]([C@@H](C)CC)NC1=O [compound 387]

Kd [4]: 1 to 100 nM
Compound: CC[C@H](C)[C@@H]1NC(=O)[C@H](Cc2ccc(O)cc2)NC(=O)[C@H](Cc2ccc(O)cc2)NC(=O)[C@H](CC(N)=O)NC(=O)[C@H](Cc2c[nH]c3ccccc23)NC(=O)[C@H](C(C)C)NC(=O)[C@H](Cc2ccccc2)NC(=O)[C@H](C(C)C)NC(=O)[C@H](C)NC(=O)CSC[C@@H](C(N)=O)NC(=O)[C@H](Cc2ccc(O)cc2)N(C)C(=O)[C@H](Cc2ccc(O)cc2)NC(=O)[C@H](CCCNC(=N)N)NC(=O)[C@H](C)NC(=O)[C@H]([C@@H](C)CC)NC1=O [compound 253]
